Experimental findings from patent publication US8865894B2, “Oxazolidin-2-one compounds and uses thereof” (Novartis AG, priority 2012, dated 2014) are described below.

Read-outs that look alike come from different tables or passages of the source.

In one data set the test system is A2058 cells. Description: Cell cycle G2/M arrest Cytospin assay to detect tubulin binding (off-target). On the set-up: key: 0=no condensed DNA observed (indicating no off target activity); 1=(indicating weak off target activity); 2=(indicating medium off target activity); 3=large amount of condensed DNA observed (indicating strong off-target activity). Particulars: 5 μM test item, 24 hours. The class given is cell-based. Here is the method: The off-target effect (evidence of tubulin binding) was measured as follows.
Cell cycle G2/M arrest Cytospin assay to detect tubulin binding (off-target) binding activities of MAPP derivatives: 5×10^5 cells A2058 cells were plated in 6-well cluster, with 2 mL of DMEM (high Glucose containing 1% sodium pyruvate, 1% glutamin and 10% FCS). 18 hours later, the test items were added at a concentration of 5 μM (spiking 1 μL of a 10 mM solution of the test item). 24 hours later, the cells were trypsinized and transferred into a 15 mL conical tube. Cells are then pelleted by centrifugation, and resuspended with PBS/0 (containing 10% FCS). Cells are counted with a CASY counter, and each samples equilibrated to 1×10^6 cells/mL. […] The staining was visually assessed for the presence of condensed DNA and given a score where 0=no condensed DNA observed (indicating no off target activity), 1=(indicating weak off target activity), 2=(indicating medium off target activity), 3=large amount of condensed DNA observed (indicating strong off-target activity).

A further data set concerns the target T1, human PI3Kα (Homo sapiens, UniProt P42336).
T1 construct: made in house
Description: Biochemical PI3Kalpha (KinaseGlo luminescent kinase assay). Here is the method:
Test compounds were dissolved in DMSO (10 mM) and transferred into 1.4 mL flat bottom or V-shaped Matrix tubes carrying a unique 2D matrix chip by individual Novartis compound hubs. The numbers of these chips were distinctively linked to Novartis Pharma Numbers. The stock solutions were stored at −20° C. if not used immediately. For the test procedure the vials were defrosted and identified by a scanner whereby a working sheet was generated that guided the subsequent working steps.
Compounds were either manually diluted in DMSO for individual experiments (96 wells enabling 10 cpds at 8 (single points) concentrations) as described in or prepared as described below if tested for profiling in 384-wells. This format enabled the assay of maximally 40 individual test compounds at 8 concentrations (single points) including 4 reference compounds. The dilution protocol included the production of “pre-dilution plates”, “master plates” and “assay plates”.
96 polypropylene well plates were used as pre-dilution plates. A total of 4 pre-dilution plates were prepared including 10 test compounds each on the plate positions A1-A10, one standard compound at A11 and one DMSO control at A12. Programs have been written to run these pipetting steps on the HamiltonSTAR robots.
Identical “assay plates” were then prepared by pipetting 50 nL each of compound dilutions of the “master plates” into 384-well “assay plates”. The compounds were mixed with 4.5 μL of assays components plus 4.5 μL enzyme corresponding to a 1:181 dilution enabling the final concentration of 10, 3.0, 1.0, 0.3, 0.1, 0.03, 0.01 and 0.003 μM, respectively. The preparation of the “master plates” was handled by the Matrix PlateMate Plus robot and replication of “assay plates” by the HummingBird robot.
Catalytically active human PI3Kα, PI3Kβ, PI3Kδ, and mTOR were cloned, expressed and purified as described (Maira S M, Stauffer F, Brueggen J, Furet P, Schnell C, Fritsch C, Brachmann S, Chène P, de Pover A, Schoemaker K, Fabbro D, Gabriel D, Simonen M, Murphy L, Finan P, Sellers W, García-Echeverría C (2008), Mol Cancer Ther. 7:1851-63 and Maira S M, Pecchi S, Brueggen J, Huh K, Schnell C, Fritsch C, Nagel T, Wiesmann M, Brachmann S, Dorsch M, Chène P, Schoemaker K, De Pover A, Menezes D, Fabbro D, Sellers W, García-Echeverría C, Voliva C F (2011), Mol. Cancer Ther. accepted).
The luminescence-based ATP detection reagent KinaseGlo was obtained from Promega, (Cat. No. V6714, Lot No. 236161) through Catalys, Wallisellen, Switzerland. (L-alpha-phosphatidylinositol (PI), Liver, Bovine) were obtained from Avanti Polar Lipid (Cat. No. 840042C, Lot#LPI-274), Phosphatidylinositol-4,5-bisphosphate (PIP(4,5)2 (Avanti, Cat. No. 840046×) or L-α-phosphatidylinositol (PI) was obtained from Avanti Polar Lipid (Cat. No. 840042C, Lot#LPI-274). L-α-Phosphatidylserine (PS) was from Avanti Polar Lipid (Cat. No. 840032C), n-OctylGlucoside Avanti Polar Lipid (Cat. No. 10634425001). Luminescence is a well established readout to determine ATP concentrations and can thus be used to follow the activity of many kinases regardless of their substrate. The Kinase Glo Luminescent Kinase Assay (Promega, Madison/Wis., USA) is a homogeneous HTS method of measuring kinase activity by quantifying the amount of ATP remaining in solution following a kinase reaction.
50 nL of compound dilutions were dispensed onto black 384-well low volume Non Binding Styrene (NBS) plates (Costar Cat. No. NBS#3676) as described in section 8.2. L-α-phosphatidylinositol (PI), provided as 10 mg/ml solution in methanol, was transferred into a glass tube and dried under nitrogen beam. It was then resuspended in 3% OctylGlucoside by vortexing and stored at 4° C. 5 μL of a mix of PI/OG with the PI3Ka and Pi3Kb subtypes were added. Kinase reactions were started by addition of 5 μl of ATP-mix containing in a final volume 10 μL 10 mM TRIS-HCl pH 7.5, 3 mM MgCl2, 50 mM NaCl, 0.05% CHAPS, 1 mM DTT and 1 μM ATP, and occurred at room temperature.

Where [1] appears, read: a different, separate measurement, read-out: PI3Ka IC50, different, separate measurement (footnote).
Where [2] appears, read: biochemical, 1 μM ATP, mean of n measurements, read-out: PI3Ka/ IC50.
Setting [3] is: biochemical, 1 μM ATP, mean of n measurements.

T1 sequence (P42336 with tags, fused parts or gaps limits assumed): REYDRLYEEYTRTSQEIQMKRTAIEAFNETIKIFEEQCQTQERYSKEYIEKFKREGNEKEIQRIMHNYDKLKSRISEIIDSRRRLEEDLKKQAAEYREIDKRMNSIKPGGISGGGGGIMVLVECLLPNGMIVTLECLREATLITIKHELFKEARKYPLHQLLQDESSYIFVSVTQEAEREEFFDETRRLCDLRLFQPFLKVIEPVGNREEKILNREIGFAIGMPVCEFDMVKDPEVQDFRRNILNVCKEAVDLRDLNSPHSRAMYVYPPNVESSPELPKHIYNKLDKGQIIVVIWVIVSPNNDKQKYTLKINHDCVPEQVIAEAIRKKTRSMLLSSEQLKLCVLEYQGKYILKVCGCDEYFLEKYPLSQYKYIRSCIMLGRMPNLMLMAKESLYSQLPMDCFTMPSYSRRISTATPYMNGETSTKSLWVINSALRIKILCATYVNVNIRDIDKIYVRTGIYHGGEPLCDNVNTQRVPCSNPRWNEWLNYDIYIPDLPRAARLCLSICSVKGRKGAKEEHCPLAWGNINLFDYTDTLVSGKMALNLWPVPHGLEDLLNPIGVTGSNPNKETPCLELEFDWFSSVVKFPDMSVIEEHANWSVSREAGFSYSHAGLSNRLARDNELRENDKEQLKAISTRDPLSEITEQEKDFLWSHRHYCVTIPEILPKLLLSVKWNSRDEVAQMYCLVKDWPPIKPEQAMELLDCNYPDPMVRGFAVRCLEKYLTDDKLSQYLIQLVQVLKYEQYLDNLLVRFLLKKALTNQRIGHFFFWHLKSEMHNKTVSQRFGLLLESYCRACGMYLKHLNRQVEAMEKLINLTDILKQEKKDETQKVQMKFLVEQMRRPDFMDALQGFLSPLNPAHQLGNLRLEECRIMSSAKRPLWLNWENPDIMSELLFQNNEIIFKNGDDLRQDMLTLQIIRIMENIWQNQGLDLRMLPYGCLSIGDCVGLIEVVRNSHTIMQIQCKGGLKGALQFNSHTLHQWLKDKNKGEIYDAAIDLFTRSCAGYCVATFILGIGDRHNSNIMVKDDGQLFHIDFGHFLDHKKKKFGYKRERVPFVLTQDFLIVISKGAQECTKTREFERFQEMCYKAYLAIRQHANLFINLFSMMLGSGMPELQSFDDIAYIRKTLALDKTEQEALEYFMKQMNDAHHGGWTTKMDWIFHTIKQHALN

In the case of `C[C@H]1C(CC(C)(C)O)OC(=O)N1c1cc(-c2cnc(N)nc2C(F)(F)F)nc(N2CCOCC2)n1` (mixture of isomers) [Example 26, (4S,5R)- and (4S,5S)-3-(2′-amino-2-morpholino-4′-(trifluoromethyl)-[4,5′-bipyrimidin]-6-yl)-5-(2-hydroxy-2-methylpropyl)-4-methyloxazolidin-2-one], the “Score (condensed DNA, G2/M arrest; off-target tubulin binding)” value (“Score” for short) in the data set with A2058 cells is recorded as 0. Besides, the figures for the IC50 at human PI3Kα (setting [1]) and at human PI3Kα (setting [2]) were under 3 nM and 5 nM, respectively. Turning to `CC1(CO)COC(=O)N1c1cc(-c2cnc(N)nc2C(F)(F)F)nc(N2CCOCC2)n1` (racemic) [Example 3, 3-(2′-amino-2-morpholino-4′-(trifluoromethyl)-4,5′-bipyrimidin-6-yl)-4-(hydroxymethyl)-4-methyloxazolidin-2-one], the “Score” value in the data set with A2058 cells was 0. Also, the “PI3Ka/ IC50” value on human PI3Kα (setting [3]) is on record as 0.021 umol I-1.

In the case of `Nc1ncc(-c2cc(N3C(=O)O[C@@H]4[C@@H](O)CC[C@@H]43)nc(N3CCOCC3)n2)c(C(F)(F)F)n1` (racemic) [Example 22, (3aR*,6R*,6aR*)-3-(2′-Amino-2-morpholino-4′-(trifluoromethyl)-[4,5′-bipyrimidin]-6-yl)-6-hydroxyhexahydro-2H-cyclopenta[d]oxazol-2-one], the “Score” value with A2058 cells stood at 0. At human PI3Kα (setting [2]), the IC50 was 6 nM. In the case of `Nc1ncc(-c2cc(N3C(=O)OC4C(O)CCC43)nc(N3CCOCC3)n2)c(C(F)(F)F)n1` (single isomer, unassigned) [Example 22A], the IC50 at human PI3Kα (setting [2]) amounted to 7 nM. As for `Nc1ncc(-c2cc(N3C(=O)OC4C(O)CCC43)nc(N3CCOCC3)n2)c(C(F)(F)F)n1` (single isomer, unassigned) [Example 22B], the IC50 at human PI3Kα (setting [2]) worked out at 26 nM.

Take `C[C@@H](O)C[C@H]1OC(=O)N(c2cc(-c3cnc(N)nc3C(F)(F)F)nc(N3CCOCC3)n2)[C@H]1C` (single isomer, unassigned) [Example 24]: the “Score” value with A2058 cells is 0. Also, the IC50 at human PI3Kα (setting [2]) is 5 nM.

In the case of `C[C@H](O)CC1OC(=O)N(c2cc(-c3cnc(N)nc3C(F)(F)F)nc(N3CCOCC3)n2)[C@H]1C` (single isomer, unassigned) [Example 25], the “Score” value in the data set with A2058 cells was 0. Also, the IC50 was under 3 nM on human PI3Kα (setting [1]) and 5 nM on human PI3Kα (setting [2]). For `C[C@H]1COC(=O)N1c1cc(-c2cnc(N)nc2C(F)(F)F)nc(N2CCOCC2)n1` [Example 1, (S)-3-(2′-Amino-2-morpholin-4-yl-4′-trifluoromethyl-[4,5′]bipyrimidinyl-6-yl)-4-methyl-oxazolidin-2-one], the “Score” value in the data set with A2058 cells is listed as 0. Further, the “PI3Ka/ IC50” value on human PI3Kα (setting [3]) is reported as 0.008 umol I-1.

Consider `CC1(C)OC(=O)N(c2cc(-c3cnc(N)nc3C(F)(F)F)nc(N3CCOCC3)n2)[C@H]1CO` [Example 2, (S)-3-(2′-Amino-2-morpholin-4-yl-4′-trifluoromethyl-[4,5′]bipyrimidinyl-6-yl)-4-hydroxymethyl-5,5-dimethyl-oxazolidin-2-one], for which the “PI3Ka/ IC50” value at human PI3Kα (setting [3]) came out at 0.023 umol I-1.

`Nc1ncc(-c2cc(N3C(=O)O[C@H]4CCCC[C@@H]43)nc(N3CCOCC3)n2)c(C(F)(F)F)n1` [Example 4, (3aS,7aS)-3-(2′-Amino-2-morpholin-4-yl-4′-trifluoromethyl-[4,5′]bipyrimidinyl-6-yl)-hexahydro-benzooxazol-2-one]: the “Score” value in the data set on A2058 cells was determined as 0. Moreover, on human PI3Kα (setting [3]), the “PI3Ka/ IC50” value amounted to 0.014 umol I-1.

As for `COC[C@H]1COC(=O)N1c1cc(-c2cnc(N)nc2C(F)(F)F)nc(N2CCOCC2)n1` [Example 5, (S)-3-(2′-Amino-2-morpholin-4-yl-4′-trifluoromethyl-[4,5′]bipyrimidinyl-6-yl)-4-methoxymethyl-oxazolidin-2-one], in the data set on A2058 cells, the “Score” value amounted to 0. The “PI3Ka/ IC50” value at human PI3Kα (setting [3]) worked out at 0.011 umol I-1. For the compound `C[C@@H]1OC(=O)N(c2cc(-c3cnc(N)nc3C(F)(F)F)nc(N3CCOCC3)n2)[C@H]1CO` [Example 6], the “Score” value with A2058 cells turned out to be 0. The “PI3Ka/ IC50” value on human PI3Kα (setting [3]) worked out at 0.013 umol I-1. For the compound `[2H]C1([2H])OC([2H])([2H])C([2H])([2H])N(c2nc(-c3cnc(N)nc3C(F)(F)F)cc(N3C(=O)O[C@H](C)[C@@H]3CO)n2)C1([2H])[2H]` [Example 8], the “Score” value in the data set on A2058 cells came out at 0. For the same compound, the “PI3Ka/ IC50” value on human PI3Kα (setting [3]) turned out to be 0.013 umol I-1. `Nc1ncc(-c2cc(N3C(=O)OC[C@@H]3CCO)nc(N3CCOCC3)n2)c(C(F)(F)F)n1` [Example 9, (S)-3-(2′-Amino-2-morpholin-4-yl-4′-trifluoromethyl-[4,5′]bipyrimidinyl-6-yl)-4-(2-hydroxy-ethyl)-oxazolidin-2-one]: the “PI3Ka/ IC50” value at human PI3Kα (setting [3]) was 0.384 umol I-1. Consider `C[C@H]1OC(=O)N(c2cc(-c3cnc(N)nc3C(F)(F)F)nc(N3CCOC[C@@H]3C)n2)[C@H]1CO` [Example 10, (4S,5R)-3-[2′-Amino-2-((S)-3-methyl-morpholin-4-yl)-4′-trifluoromethyl-[4,5′]bipyrimidinyl-6-yl]-4-hydroxymethyl-5-methyl-oxazolidin-2-one], for which the “Score” value in the data set with A2058 cells worked out at 0. For the same compound, at human PI3Kα (setting [3]), the “PI3Ka/ IC50” value is recorded as 0.008 umol I-1.

Regarding `Nc1ncc(-c2cc(N3CCOC3=O)nc(N3CCOCC3)n2)c(C(F)(F)F)n1` [Example 11, 3-(2′-Amino-2-morpholin-4-yl-4′-trifluoromethyl-[4,5′]bipyrimidinyl-6-yl)-oxazolidin-2-one, reference compound], in the data set on A2058 cells, the “Score” value was determined as 3. Besides, the “PI3Ka/ IC50” value at human PI3Kα (setting [3]) came to 0.038 umol I-1.

With `C[C@H]1OC(=O)N(c2cc(-c3cnc(N)nc3C(F)(F)F)nc(N3CCOCC3)n2)[C@H]1COC=O` [Example 12, Formic acid (4S,5R)-3-(2′-amino-2-morpholin-4-yl-4′-trifluoromethyl-[4,5′]bipyrimidinyl-6-yl)-5-methyl-2-oxo-oxazolidin-4-ylmethyl ester], in the data set with A2058 cells, the “Score” value worked out at 0. The “PI3Ka/ IC50” value on human PI3Kα (setting [3]) was 0.030 umol I-1. As to `C[C@H]1COCCN1c1nc(-c2cnc(N)nc2C(F)(F)F)cc(N2C(=O)OC[C@@H]2C)n1` [Example 13, (S)-3-[2′-Amino-2-((S)-3-methyl-morpholin-4-yl)-4′-trifluoromethyl-[4,5′]bipyrimidinyl-6-yl]-4-methyl-oxazolidin-2-one], in the data set with A2058 cells, the “Score” value was 0. Further, the “PI3Ka/ IC50” value at human PI3Kα (setting [3]) was 0.203 umol I-1.
